Assay results published in ChEMBL document CHEMBL2074058, “Regulation by dexamethasone of P-glycoprotein expression in cultured rat hepatocytes” (FEBS Lett, 1993).

Legend:
[1] = molecular target: Multidrug resistance protein 1a (Rattus norvegicus) (UniProt Q6PSM0); test: TP_TRANSPORTER: Western blot, primary hepatocytes; type: functional, cell-based; conditions: Hepatocyte
[2] = molecular target: Multidrug resistance protein 1a (Rattus norvegicus) (UniProt Q6PSM0); test: TP_TRANSPORTER: Northern blot from primary hepatocytes; type: functional, cell-based; conditions: Hepatocyte

Chain of Multidrug resistance protein 1a (Rattus norvegicus) (Q6PSM0 as listed by the source): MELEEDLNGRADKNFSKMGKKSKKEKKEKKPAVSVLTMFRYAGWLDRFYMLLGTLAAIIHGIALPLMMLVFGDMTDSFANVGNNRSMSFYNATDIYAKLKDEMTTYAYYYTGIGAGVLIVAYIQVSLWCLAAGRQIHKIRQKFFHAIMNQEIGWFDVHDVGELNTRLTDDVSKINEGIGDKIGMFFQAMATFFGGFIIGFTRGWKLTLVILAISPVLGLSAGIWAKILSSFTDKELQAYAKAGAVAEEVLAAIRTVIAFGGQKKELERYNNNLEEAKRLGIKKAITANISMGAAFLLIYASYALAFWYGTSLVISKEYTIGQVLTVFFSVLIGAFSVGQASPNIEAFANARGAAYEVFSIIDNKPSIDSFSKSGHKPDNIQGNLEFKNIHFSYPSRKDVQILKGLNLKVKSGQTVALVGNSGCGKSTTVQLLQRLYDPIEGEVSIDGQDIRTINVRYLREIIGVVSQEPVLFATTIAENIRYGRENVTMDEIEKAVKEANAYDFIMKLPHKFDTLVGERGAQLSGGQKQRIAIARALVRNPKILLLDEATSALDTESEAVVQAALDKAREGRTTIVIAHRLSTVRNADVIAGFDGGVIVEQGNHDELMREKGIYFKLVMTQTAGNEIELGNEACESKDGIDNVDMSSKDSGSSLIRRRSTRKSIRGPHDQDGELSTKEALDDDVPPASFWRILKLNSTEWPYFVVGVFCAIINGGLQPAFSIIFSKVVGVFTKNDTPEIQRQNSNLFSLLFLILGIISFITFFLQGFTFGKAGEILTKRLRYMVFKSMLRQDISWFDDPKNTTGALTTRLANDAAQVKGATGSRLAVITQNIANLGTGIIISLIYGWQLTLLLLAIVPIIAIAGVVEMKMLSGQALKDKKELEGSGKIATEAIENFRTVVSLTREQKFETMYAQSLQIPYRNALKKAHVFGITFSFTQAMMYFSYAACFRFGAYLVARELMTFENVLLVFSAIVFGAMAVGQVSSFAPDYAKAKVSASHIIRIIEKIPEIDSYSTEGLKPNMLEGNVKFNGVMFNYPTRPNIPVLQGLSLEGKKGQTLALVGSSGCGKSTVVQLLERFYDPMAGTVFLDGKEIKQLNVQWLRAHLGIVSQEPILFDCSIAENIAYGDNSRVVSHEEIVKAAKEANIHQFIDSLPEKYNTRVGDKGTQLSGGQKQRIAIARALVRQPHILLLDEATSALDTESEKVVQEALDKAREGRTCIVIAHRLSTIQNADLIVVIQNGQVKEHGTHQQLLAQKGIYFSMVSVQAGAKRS

Activity [1]: inducer [Decrease]
Activity [2]: inducer [Decrease]
Structure (SMILES): C[C@@H]1C[C@H]2[C@@H]3CCC4=CC(=O)C=C[C@]4(C)[C@@]3(F)[C@@H](O)C[C@]2(C)[C@@]1(O)C(=O)CO
